Experimental data published in ChEMBL document CHEMBL5505950, “An updated review of chemical compounds with anti-Toxoplasma gondii activity” (Eur J Med Chem, 2023).

system: not listed separately; experiment: Inhibition of recombinant Toxoplasma gondii Farnesyl pyrophosphate synthase; settings: not given

Point of comparison: CCCCCCCSCC(P(=O)(O)O)P(=O)(O)O, IC50 0.069 µM. Against it:
- CCCCCCCCCCSCC(P(=O)(O)O)P(=O)(O)O — 3.3-fold lower, 0.021 µM
- CCCCCCCCCCS(=O)(=O)CC(P(=O)(O)O)P(=O)(O)O — 3.9-fold higher, 0.27 µM
- CCCCCCC[S+]([O-])CC(P(=O)(O)O)P(=O)(O)O (stereo unspecified) — 7.7-fold lower, 0.009 µM

system: Toxoplasma gondii; experiment: Antiparasitic activity against Toxoplasma gondii tachyzoites infected in hTRET cells assessed as parasitic growth inhibition; assay type: functional, organism-based; settings: not given

Point of comparison: O=P(O)(O)C(CSCCOc1cccc(Oc2ccccc2)c1)P(=O)(O)O, EC50 0.67 µM. Against it:
- CCCCCCCCCCSCC(P(=O)(O)O)P(=O)(O)O — 2.7-fold higher, 1.8 µM
- CCCCCCCSCC(P(=O)(O)O)P(=O)(O)O — within 1.5-fold, 0.97 µM
- CCCCCCCCCCS(=O)(=O)CC(P(=O)(O)O)P(=O)(O)O — 6.1-fold lower, 0.11 µM
- CCCCCCC[S+]([O-])CC(P(=O)(O)O)P(=O)(O)O (stereo unspecified) — 7.5-fold higher, 5 µM
- CCCCCCCNCC(P(=O)(O)O)P(=O)(O)O — higher, > 10 µM

system: Toxoplasma gondii; experiment: Antiparasitic activity against Toxoplasma gondii assessed as parasitic growth inhibition; assay type: functional, organism-based; settings: not given

Point of comparison: N#C[Se]CCOc1ccc(Oc2ccccc2)cc1, EC50 3.7 µM. Against it:
- N#C[Se]CCOc1cccc(Oc2ccccc2)c1 — within 1.5-fold, 2.87 µM
- N#CSCCOc1ccc(Oc2ccccc2)cc1 — within 1.5-fold, 4.8 µM

system: Toxoplasma gondii; experiment: Antiparasitic activity against Toxoplasma gondii tachyzoites infected in hTRET cells assessed as reduction in parasitic growth; assay type: functional; settings: read-out: ED50 (the source's name)

Point of comparison: C[C@@H](COC(=O)NCCCn1c(=O)n(C)c2ccccc21)N(Cc1ccccc1)Cc1ccccc1, EC50 0.38 µM. Against it:
- COC(=O)/C=C1/S/C(=N/N=C\c2ccccc2O)NC1=O — 1.7-fold higher, 0.66 µM
- COC(=O)/C=C1/S/C(=N/N=C(/C)c2ccccn2)NC1=O — 1.9-fold lower, 0.2 µM
- O=C(OCCOCc1ccccc1)N1CCC(n2c(=O)[nH]c3ccccc32)CC1 — within 1.5-fold, 0.5 µM
- C[C@@H](COC(=O)N1CCC(n2c(=O)n(C)c3ccccc32)CC1)N(Cc1ccccc1)Cc1ccccc1 — 1.9-fold lower, 0.2 µM
- COC(=O)/C=C1/S/C(=N/N=C(C)\C=N\O)NC1=O — within 1.5-fold, 0.49 µM
- CCCCCCCCCC(O)(P(=O)(O)O)P(=O)(O)O — 2.2-fold higher, 0.85 µM

system: not listed separately; experiment: Inhibition of Toxoplasma gondii Farnesyl pyrophosphate synthase; settings: not given

CCCCCCCCCC(O)(P(=O)(O)O)P(=O)(O)O showed an IC50 of 0.13 µM.

system: not listed separately; experiment: Inhibition of Toxoplasma gondii Heptaprenyl Diphosphate Synthase Coq1 expressed in Escherichia coli BL21; settings: not given

For CCCCCCCCCC(O)(P(=O)(O)O)P(=O)(O)O, the IC50 was 2.13 µM.

molecular target: T1, Bifunctional dihydrofolate reductase-thymidylate synthase (Toxoplasma gondii, UniProt Q07422); experiment: Inhibition of Toxoplasma gondii Dihydrofolate reductase; settings: not given
T1 sequence (Q07422 whole entry): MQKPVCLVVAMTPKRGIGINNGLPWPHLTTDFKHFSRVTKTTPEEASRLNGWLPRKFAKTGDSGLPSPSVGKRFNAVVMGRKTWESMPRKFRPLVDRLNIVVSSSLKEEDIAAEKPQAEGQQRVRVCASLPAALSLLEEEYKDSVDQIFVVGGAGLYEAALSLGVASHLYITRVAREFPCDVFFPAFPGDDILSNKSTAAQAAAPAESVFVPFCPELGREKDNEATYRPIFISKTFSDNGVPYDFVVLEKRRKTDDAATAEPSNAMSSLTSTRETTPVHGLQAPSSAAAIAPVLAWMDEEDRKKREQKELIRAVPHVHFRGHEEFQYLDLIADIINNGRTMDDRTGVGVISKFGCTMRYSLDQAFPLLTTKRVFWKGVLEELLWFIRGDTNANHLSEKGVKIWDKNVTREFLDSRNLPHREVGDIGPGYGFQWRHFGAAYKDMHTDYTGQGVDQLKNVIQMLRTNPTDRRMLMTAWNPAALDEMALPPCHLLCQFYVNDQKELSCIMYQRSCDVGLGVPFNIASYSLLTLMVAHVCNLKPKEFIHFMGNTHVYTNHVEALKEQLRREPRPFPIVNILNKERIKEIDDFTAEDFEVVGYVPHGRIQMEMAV

Point of comparison: CCc1sc2nc(N)[nH]c(=O)c2c1Sc1ccc([N+](=O)[O-])cc1, IC50 0.008 µM. Against it:
- CCc1sc2nc(N)[nH]c(=O)c2c1Sc1ccc(Br)cc1 — within 1.5-fold, 0.01 µM
- COc1ccc(C#Cc2cccc(C(=O)O)c2)cc1Cc1cnc2nc(N)nc(N)c2c1OC — 1.6-fold lower, 0.005 µM
- CCc1sc2nc(N)[nH]c(=O)c2c1Sc1ccc2ccccc2c1 — the same, 0.008 µM
- COc1ccc(CCCCCCC(=O)O)cc1Cc1cnc2nc(N)nc(N)c2c1OC — 2.7-fold lower, 0.003 µM
- CCc1sc2nc(N)[nH]c(=O)c2c1Sc1ccc(C(=O)N[C@@H](CCC(=O)O)C(=O)O)cc1 — 4-fold lower, 0.002 µM

system: Toxoplasma gondii; experiment: Antiparasitic activity against Toxoplasma gondii EGS infected in human HFF cells; assay type: functional; settings: read-out: ED50 (the source's name)

Work on O=C(CCCCCCC(=O)Nc1ccccc1)NO [VORINOSTAT] yielded an EC50 of 0.07 µM.

system: Toxoplasma gondii; experiment: Antiparasitic activity against Toxoplasma gondii RH tachyzoites infected in human HFF cells assessed as parasitic growth inhibition; assay type: functional; settings: time 72 hrs, read-out: ED50 (the source's name)

Point of comparison: Cc1c(NC(=O)c2ccc(C(C)(C)C)cc2)cccc1-c1cn(C)c(=O)c(Nc2ccc(C(=O)N3CCOCC3)cc2)n1, EC50 14.6 µM. Against it:
- Cc1coc2c1C(=O)C(=O)c1c-2ccc2c1CCCC2(C)C [TANSHINONE IIA] — 15-fold lower, 1 µM
- CNc1[nH]c(Nc2ccc(C(=O)N3CCOCC3)cc2OC)nc2ncc(Cl)c1-2 — 2.5-fold lower, 5.88 µM
- CO/C=C(\C(=O)OC)c1ccccc1Oc1cc(Oc2ccccc2C#N)ncn1 [Azoxystrobin] — 2.1-fold lower, 7.05 µM
- CCC(=O)CCCCC[C@@H]1NC(=O)[C@H]2C[C@H](C)CN2C(=O)[C@H](Cc2ccccc2)NC(=O)[C@](C)(CC)NC1=O — 1300-fold lower, 0.011 µM
- CC[C@]1(C)NC(=O)[C@H](CCCCCC(=O)[C@@H](C)OC(C)=O)NC(=O)[C@H]2C[C@H](C)CN2C(=O)[C@H](Cc2ccccc2)NC1=O — 15000-fold lower, 0.001 µM
- O=C(NC1CC1)c1ccc(N2CCC(Cc3ccccc3)CC2)nc1 — 5.2-fold lower, 2.81 µM
- OCCOCCN1CCN(C(c2ccccc2)c2ccc(Cl)cc2)CC1 (stereo unspecified) [HYDROXYZINE] — 5.8-fold lower, 2.5 µM
- O=C1C(O)=C([C@H]2CC[C@H](c3ccc(Cl)cc3)CC2)C(=O)c2ccccc21 [ATOVAQUONE] — 81-fold lower, 0.18 µM
- CO/N=C(\C(=O)OC)c1ccccc1CO/N=C(\C)c1cccc(C(F)(F)F)c1 — 29-fold lower, 0.5 µM
- CCOc1ccc2cc(-c3nn(C(C)(C)C)c(N)c3C(N)=O)cnc2c1 — 5.3-fold lower, 2.76 µM
- CC(C)(C)C1CCC(CC2C(=O)C(=O)c3ccccc3C2O)CC1 (stereo unspecified) — 12-fold lower, 1.18 µM
